The values that follow come from patent publication US9770482B2, “Targeting the EGFR-SGLT1 interaction for cancer therapy” (The University of Houston System, priority 2013, dated 2017).

Data set [1] deals with prostate cancer Du145 cells. Kind of data set: Trypan blue uptake assay, Du145 cells. Format: cell-based. To be noted: 100 μM for 24 hours, FIG. 6. An excerpt: (§1) In another embodiment, a peptide can destabilize EGFR and SGLT1 proteins of cancer cells. FIG. 5A, by way of example only, illustrates an embodiment of a peptide, called ESD-01 (SEQ ID NO: 001), which can destabilize EGFR and SGLT1 proteins of cancer cells. In one embodiment, the ESD-01 peptide can be selected from the SGLT1 interacting domain of EGFR. In another embodiment, ESD-01 comprises amino acids 1049-1062 of a human EGFR protein (GenBank: AAH94761.1). In still another embodiment, the effects of ESD-01 on the stability of EGFR and SGLT1 in cultured cells (e.g, PC3, MDA-MB-231, and HCT116 cells) can be determined by Western blot analysis. […] In still another embodiment, the effects of ESD-01 on the survivability of cultured cancer cells (e.g, PC3, MDA-MB-231, and HCT116 cells) can be determined by trypan blue uptake assay.
(§2) Cell growth was determined by 3-(4,5-dimethylthiazole-2-yl)-2,5-diphenyltetrazolium Bromide (MTT) assay in 96-well plates according to the protocol provided by the manufacture. Briefly, 5000 cells suspended in 100 μL medium were seeded in each well of a 96-well plate. […] Absorbance was measured by a MultiSkan plate reader (Thermo Fisher Scientific, NC) at 570 nm. […] Cell viability was determined by trypan blue uptake assay. The percentage of live cells were counted in areas (n=3 for each sample) randomly selected under 10× magnificence of triplicates.

The subject of data set [2] is colon cancer HCT116 cells. Nature of the data set: Trypan blue uptake assay, HCT116 cells. It is filed as cell-based. Particulars: 100 μM for 24 hours, FIG. 6.
Text: as §1, §2

A further data set relates to cancer cells. Kind of data set: Killing of cancer cells in vitro, L- versus D-amino acid peptide. Format: cell-based.
The subject of data set [3] is SGLT1. Nature of the data set: Western blot of SGLT1 level in PC3 cells. It is filed as cell-based. Particulars: FIG. 5B.
Text: as §1
(§3) For Western blot (WB) analysis, cells were lysed with RIPA buffer (150 mM NaCl, 50 mM Tris-HCl, pH 7.4, 0.1% SDS, 1% TritonX-100, 1 mM EDTA, 1 mM PMSF, 20 μg/ml aprotinin, 20 μg/ml leupeptin, 20 μg/ml pepstatine, 1% sodium deoxycholate, 1 mM NaF, 1 mM Na3VO4, in H2O). Proteins separated by 8% SDS-PAGE were transferred to PVDF membrane followed by blocking with 5% nonfat dry milk and then incubation with primary antibodies at optimized concentrations for overnight at 4° C. […]

Data set [4] concerns breast cancer MDA-MB-231 cells. Nature of the data set: Trypan blue uptake assay, MDA-MB-231 cells. It is filed as cell-based. Particulars: 100 μM for 24 hours, FIG. 6.
Text: as §1, §2

In data set [5] the test system is non-cancerous HEK293 cells. Nature of the data set: Trypan blue uptake assay, HEK293 cells. It is filed as cell-based. To be noted: FIG. 6.
Text: as §1, §2

Data set [6] deals with prostate cancer PC3 cells. Nature of the data set: Trypan blue uptake assay, PC3 cells. Particulars: 100 μM for 24 hours, FIG. 6. It is filed as cell-based.
Text: as §1, §2

Another data set deals with EGFR. Kind of data set: Western blot of EGFR level in PC3 cells. To be noted: FIG. 5B. Format: cell-based.
Text: as §1, §3

The subject of data set [7] is SGLT1. Kind of data set: Western blot of SGLT1 level in SGLT1 and ΔAutoPhos-EGFR co-transfected HEK293 cells. It is filed as cell-based, human. Particulars: FIGS. 2C-2D. An excerpt:
In an embodiment, to determine whether proteasome is involved in loss of interaction with EGFR induced down-regulation of SGLT1, SGLT1 and ΔAutoPhos-EGFR co-transfected HEK293 cells can be treated with a proteasome inhibitor, such as but not limited to […]. For example, FIG. 2C illustrates a Western blot analysis of the effect of a proteasome inhibitor MG132 on the down-regulation of SGLT1 by ΔAutophos-EGFR. Actin may be used as a loading control. FIG. 2D, by way of example only, illustrates a densitometric quantification of bands in the Western blot of FIG. 2C. Asterisk marks indicate statistical significance between the linked representative groups from triplicate experiments.
HEK293 cells were transfected with plasmids expressing flagged SGLT1 alone or with indicated HA tagged EGFR constructs. After 24 hours of transfection, cells were washed in 1× phosphate buffered solution and lysed with RIPA buffer (50 mM Tris-HCl, pH 8.0, with 150 mM sodium chloride, 1.0% Igepal CA-630 (NP-40), 0.5% sodium deoxycholate, and 0.1% sodium dodecyl sulfate), supplemented with a protease inhibitors cocktail for 6 hours on a shaker at 4° C. The cell lysates were then centrifuged for 2 minutes at 12000× rpm. Supernatant were then incubated with sepharose protein A/G beads conjugated with anti-flag or anti-SGLT1 antibody for overnight at 4° C. […]

Data set [8] deals with T1, endogenous EGFR-SGLT1 interaction (Homo sapiens, UniProt P00533).
T1 construct: endogenous in cells; host or cells: PC3
Kind of data set: Immunoprecipitation coupled Western blot of endogenous EGFR and SGLT1 interaction in PC3 cells. It is filed as cell-based. Particulars: PC3 cells treated with EGF or AEE788; FIG. 3B.

For the next data set, the target named is T2, EGFR-SGLT1 interaction (Homo sapiens, UniProt P00533).
T2 construct: The full-length human EGFR was amplified with a forward primer EGFR-F; expressed in transfected cells; host or cells: HEK293
Kind of data set: Immunoprecipitation coupled Western blot of EGFR-HA and SGLT1-Flag interaction in co-transfected HEK293 cells. It is filed as cell-based. To be noted: WT-EGFR and SGLT1 co-transfected HEK293 cells; EGF 10 ng/ml or EGF plus AEE788 5 μM, 30-60 min; FIG. 3A.

A further data set relates to LNCaP cells. Nature of the data set: MTT cell growth assay, LNCaP cells. To be noted: phlorizin 50 μM with/without Gefitinib 10 μM or Erlotinib 10 μM, 48 hs, FIG. 4D. It is filed as cell-based. As for the experimental part:
(§4) It is well known that an increase in glucose levels can activate EGFR, that SGLT1 is over-expressed in prostate cancer tissues, and that prostate cancer is resistant to EGFR inhibitors. […] In an embodiment, SGLT1 and EGFR can synergistically promote prostate cancer growth. […] In one embodiment, the growth inhibitory effects of the treatments may be determined. […]
(§5) Cell growth was determined by 3-(4,5-dimethylthiazole-2-yl)-2,5-diphenyltetrazolium Bromide (MTT) assay in 96-well plates according to the protocol provided by the manufacture. […] Absorbance was measured by a MultiSkan plate reader (Thermo Fisher Scientific, NC) at 570 nm. […] Cell viability was determined by trypan blue uptake assay. The percentage of live cells were counted in areas (n=3 for each sample) randomly selected under 10× magnificence of triplicates. […]

The subject of a further data set is PC3 cells. Kind of data set: MTT cell growth assay, PC3 cells. Format: cell-based. Particulars: phlorizin 50 μM with/without Gefitinib 10 μM or Erlotinib 10 μM, 48 hs, FIG. 4C. As for the experimental part:
as §4, §5

For data set [9], the target named is T3, wild type EGFR, HA tagged (human, full length, C-terminal HA tag) (human, UniProt P00533 25-1210).
T3 construct: whole, on cells; Expressed by transient transfection in HEK293 cells; tested in RIPA lysates by co-immunoprecipitation; also called WT; WT-EGFR; not shown: C-terminal HA tag
Nature of the data set: co-IP of SGLT1-Flag, Western blot for EGFR-HA, HEK293 cells treated with EGF or EGF plus AEE788.

The target of data set [10] is T4, endogenous EGFR of PC3 cells (UniProt P00533 25-1210, limits assumed).
T4 construct: whole, on cells; Co-precipitated from PC3 lysates with endogenous SGLT1
Kind of data set: co-IP of endogenous SGLT1 (anti-SGLT1), Western blot for EGFR and pEGFR, PC3 cells treated with EGF or AEE788.

“Also recorded” adds a separate entry of the source. Peptide text beside a SMILES is read from it. * marks the point of attachment. Cbz = O=C(OCc1ccccc1)*

“ESD-01: synthesized peptide from the SGLT1 interacting domain of EGFR; comprises amino acids 1049-1062 of a human EGFR protein (GenBank: AAH94761.1) (LVWKQSCSSTSSTH; listed as Homo sapiens)”: the survivability entry in data set [1] is given as “significantly reduces the survivability”; in data set [2], “significantly reduces the survivability”; in data set [4], “significantly reduces the survivability”; in [5], “cannot reduce the survivability”; in data set [6], “significantly reduces the survivability”. Also, the “killing cancer cells in vitro, peptide made of L-amino acids versus D-amino acids” value with cancer cells is given as “equally effective”. Also, the SGLT1 level result in the data set with SGLT1 [3] (200 μM for 6 hours) is “significantly down-regulates”. Moreover, the EGFR level result with EGFR (200 μM for 6 hours) is recorded as “significantly down-regulates”.
As to `CC(C)C[C@@H](C=O)NC(=O)[C@H](CC(C)C)NC(=O)[C@H](CC(C)C)NC(=O)OCc1ccccc1` [MG132] (Cbz-Leu-Leu-Leu-aldehyde), the “inhibition of ESD-01 induced SGLT1 down-regulation” value with SGLT1 [3] (ESD-01 200 μM for 6 hours) is listed as “inhibited”. Moreover, the “inhibition of down-regulation of SGLT1” value with SGLT1 [7] is recorded as “can inhibit the down-regulation of SGLT1”. Besides, the “inhibition of ESD-01 induced EGFR down-regulation” value in the data set on EGFR (ESD-01 200 μM for 6 hours) is “inhibited”.
In the case of `CCN1CCN(Cc2ccc(-c3cc4c(N[C@H](C)c5ccccc5)ncnc4[nH]3)cc2)CC1` [AEE788], in data set [8], the “effect on endogenous EGFR-SGLT1 interaction” value is recorded as “neither EGF nor AEE788 affect the EGFR-SGLT1 interaction”. For the same molecule, at EGFR-SGLT1 interaction, the “effect on EGFR-SGLT1 interaction (EGFR co-immunoprecipitated with SGLT1)” value was “neither EGF nor AEE788 significantly affects the EGFR-SGLT1 interaction”.
As for `O=C(CCc1ccc(O)cc1)c1c(O)cc(O)cc1O[C@@H]1O[C@H](CO)[C@@H](O)[C@H](O)[C@H]1O` [Phlorizin], the “sensitization to growth inhibitory effects of Gefitinib and Erlotinib” value in the data set on LNCaP cells and with PC3 cells was “sensitizes; also recorded: significantly sensitize” in each case.

B1: flag tagged human SGLT1 (sodium/glucose co-transporter 1) (other, UniProt P13866 1-664, looked up)
chain: MDSSTWSPKTTAVTRPVETHELIRNAADISIIVIYFVVVMAVGLWAMFSTNRGTVGGFFLAGRSMVWWPIGASLFASNIGSGHFVGLAGTGAASGIAIGGFEWNALVLVVVLGWLFVPIYIKAGVVTMPEYLRKRFGGQRIQVYLSLLSLLLYIFTKISADIFSGAIFINLALGLNLYLAIFLLLAITALYTITGGLAAVIYTDTLQTVIMLVGSLILTGFAFHEVGGYDAFMEKYMKAIPTIVSDGNTTFQEKCYTPRADSFHIFRDPLTGDLPWPGFIFGMSILTLWYWCTDQVIVQRCLSAKNMSHVKGGCILCGYLKLMPMFIMVMPGMISRILYTEKIACVVPSECEKYCGTKVGCTNIAYPTLVVELMPNGLRGLMLSVMLASLMSSLTSIFNSASTLFTMDIYAKVRKRASEKELMIAGRLFILVLIGISIAWVPIVQSAQSGQLFDYIQSITSYLGPPIAAVFLLAIFWKRVNEPGAFWGLILGLLIGISRMITEFAYGTGSCMEPSNCPTIICGVHYLYFAIILFAISFITIVVISLLTKPIPDVHLYRLCWSLRNSKEERIDLDAEEENIQEGPKETIEIETQVPEKKKGIFRRAYDLFCGLEQHGAPKMTEEEEKAMKMKMTDTSEKPLWRTVLNVNGIILVTVAVFCHAYFA
notes: whole, on cells; Plasmid described in Blessing et al. 2012; Expressed in HEK293 cells and immunoprecipitated with anti-flag antibody; also called SGLT1-Flag; flagged SGLT1; not shown: Flag tag
Take B1: in data set [9], the binding result is given as “binds”.

B2: endogenous SGLT1 of PC3 cells (other, UniProt P13866 1-664, looked up)
chain: MDSSTWSPKTTAVTRPVETHELIRNAADISIIVIYFVVVMAVGLWAMFSTNRGTVGGFFLAGRSMVWWPIGASLFASNIGSGHFVGLAGTGAASGIAIGGFEWNALVLVVVLGWLFVPIYIKAGVVTMPEYLRKRFGGQRIQVYLSLLSLLLYIFTKISADIFSGAIFINLALGLNLYLAIFLLLAITALYTITGGLAAVIYTDTLQTVIMLVGSLILTGFAFHEVGGYDAFMEKYMKAIPTIVSDGNTTFQEKCYTPRADSFHIFRDPLTGDLPWPGFIFGMSILTLWYWCTDQVIVQRCLSAKNMSHVKGGCILCGYLKLMPMFIMVMPGMISRILYTEKIACVVPSECEKYCGTKVGCTNIAYPTLVVELMPNGLRGLMLSVMLASLMSSLTSIFNSASTLFTMDIYAKVRKRASEKELMIAGRLFILVLIGISIAWVPIVQSAQSGQLFDYIQSITSYLGPPIAAVFLLAIFWKRVNEPGAFWGLILGLLIGISRMITEFAYGTGSCMEPSNCPTIICGVHYLYFAIILFAISFITIVVISLLTKPIPDVHLYRLCWSLRNSKEERIDLDAEEENIQEGPKETIEIETQVPEKKKGIFRRAYDLFCGLEQHGAPKMTEEEEKAMKMKMTDTSEKPLWRTVLNVNGIILVTVAVFCHAYFA
notes: whole, on cells; Immunoprecipitated from PC3 lysates with anti-SGLT1 antibody
For B2, in [10], the binding result is listed as “binds”.
